Here are results for four compounds from doi:10.1101/2024.03.22.586364, “Development of quantitative high-throughput screening assays to identify, validate, and optimize small-molecule stabilizers of misfolded β-glucocerebrosidase with therapeutic potential for Gaucher disease and Parkinson’s disease” (bioRxiv, 2024).

Structures are written as SMILES. Substitutions are numbered along the chain they refer to. Where a name gives a salt, the structure may show the parent alone.

The target of one assay is T1, recombinant GCase-WT (Homo sapiens, UniProt P04062).
T1 construct: purchased Bio-Techne 7410-GHB-020
T1 sequence (P04062 40-536): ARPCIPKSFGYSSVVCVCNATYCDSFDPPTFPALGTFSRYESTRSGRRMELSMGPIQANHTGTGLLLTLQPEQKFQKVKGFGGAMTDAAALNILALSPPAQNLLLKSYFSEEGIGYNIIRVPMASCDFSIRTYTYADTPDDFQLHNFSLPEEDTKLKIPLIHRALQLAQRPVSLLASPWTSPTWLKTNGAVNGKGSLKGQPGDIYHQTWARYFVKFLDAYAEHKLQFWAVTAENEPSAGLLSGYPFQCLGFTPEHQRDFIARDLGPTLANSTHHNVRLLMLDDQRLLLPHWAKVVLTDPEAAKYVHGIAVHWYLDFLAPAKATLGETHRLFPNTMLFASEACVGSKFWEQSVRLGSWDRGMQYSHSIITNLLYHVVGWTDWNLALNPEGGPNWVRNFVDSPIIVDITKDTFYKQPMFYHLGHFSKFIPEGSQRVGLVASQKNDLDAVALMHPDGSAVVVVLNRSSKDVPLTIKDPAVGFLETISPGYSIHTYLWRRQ
The experiment in a line: Microscale thermophoresis (MST) target engagement. The format is binding. The note with it: 50 mM sodium citrate buffer (pH 5.5); n = 2; read-out: dissociation constant (Kd). How it is done: Microscale thermophoresis (MST) experiments were performed using the Monolith NT.Automated instrument (NanoTemper Technologies). […] The recombinant GCase was further diluted with assay buffer (50 mM sodium citrate, pH 5.5) to 0.160 mg/mL and incubated (RT) for 30 min with 50 nM RED-tris-NTA 2nd Generation dye from the Monolith His-Tag Labeling Kit (Cat.#MO-L018; NanoTemper Technologies). The labeling reaction mixture was centrifuged for 10 min at 4°C and 15,000 × g to remove protein aggregates, after which the supernatant was diluted 2.5x with assay buffer. For each compound measured, a 12-point, 2x titration series of compound in DMSO was prepared; 1 μL of compound in DMSO from each point in the titration series was combined with 9 μL of assay buffer and 10 μL of labeled GCase in a 384-well plate, which was left standing for 30 min (RT). The resultant final concentration of labeled GCase was ~570 nM (in 5% DMSO).

A further assay addresses T2, HiBiT-GCase-N370S (Homo sapiens, UniProt P04062, N409S).
T2 construct: expressed in transfected cells; host or cells: GBA1-KO H4 human neuroglioma cells; transgene stably integrated at the CLYBL safe-harbor locus by TALENs; CAG promoter
T2 sequence (P04062 40-536 N409S): T1 sequence (P04062 40-536) with N370S
The experiment in a line: HiBiT-GCase-N370S lytic luminescence assay, H4 reporter cells. The note with it: 24 h treatment, 1536-well format. The format is cell-based. The text has this:
(§1) Figure 1. HiBiT-tagged GCase retains normal trafficking and function, enabling a high-throughput screening assay measuring cellular GCase levels. (A) GCase was labeled with a small (1.3 kDa), pro-luminescent, N-terminal HiBiT peptide tag immediately following the signal peptide (SP) sequence. (B) This HiBiT-GCase reporter (WT, N370S, or L444P) was engineered into a human Citrate Lyase Beta-Like (CLYBL) intragenic safe-harbor locus within a GBA1-KO H4 cell background using TALEN-enhanced integrative gene transfer. (C) Co-localization of GCase (green) with lysosomal marker LAMP1 (magenta) was determined by immunofluorescent staining. […] (G) GCase protein levels were quantitated by AlphaLISA (Amplified Luminescent Proximity Homogeneous Assay) utilizing a sandwich configuration of two monoclonal antibodies recognizing non-overlapping epitopes, hGCase-1/23 (which was biotinylated and associated with a streptavidin-coated donor bead) and hGCase-1/17 (which was directly conjugated to an acceptor bead). […] (H) GCase activity was measured in cell lysates using the fluorogenic substrate 4-methylumbelliferyl-β-D-glucopyranoside. Relative GCase activity was calculated by adjusting for protein concentration, correcting for GBA1-KO H4 cell background, and normalizing to GBA1-WT signal. […]

A further assay addresses T3, HiBiT-GCase-WT (Homo sapiens, UniProt P04062).
T3 construct: expressed in transfected cells; host or cells: GBA1-KO H4 human neuroglioma cells; transgene stably integrated at the CLYBL safe-harbor locus by TALENs; CAG promoter
T3 sequence (P04062 40-536): T1 sequence (P04062 40-536)
The experiment in a line: HiBiT-GCase-WT lytic luminescence assay, H4 reporter cells. It counts as cell-based. As to conditions: 24 h treatment, 1536-well format.
From the text: as §1
For orientation: With HiBiT, luminescence reflects the tagged protein that the partner subunit can reach.

Assay [1] deals with integrated stress response (ISR). More on the design: method as in PMID 23741617. The note with it: read-out: IC50 (potency with which ISRIB modifies its target); cited from earlier work.

As to `O=C(COc1ccccc1C(=O)Nc1ccc(I)cc1)Nc1ccc(I)cc1` [NCGC00241326-01, N-(4-iodophenyl)-2-(2-((4-iodophenyl)amino)-2-oxoethoxy)benzamide], the Kd – broadly, the free concentration of one partner at which half of the binding sites on the other are occupied at equilibrium, for simple one-to-one binding – at recombinant GCase-WT is 3750 nM.

On to `C#Cc1ccc(NC(=O)c2cnn3c(C)cc(C)nc23)cc1` [NCGC758], for which the “effect on HiBiT-GCase-N370S levels (in words)” value on HiBiT-GCase-N370S was “inactive in all three lines”. The “effect on HiBiT-GCase-WT levels (in words)” value at HiBiT-GCase-WT is “inactive in all three lines”.

For `Nc1c(Br)cc(Br)cc1CN[C@H]1CC[C@H](O)CC1` [NCGC00371077-02, Ambroxol HCl], the “effect on HiBiT-GCase-N370S levels (in words)” value at HiBiT-GCase-N370S is given as “increased HiBiT-GCase levels in all three lines”. The “effect on HiBiT-GCase-WT levels (in words)” value on HiBiT-GCase-WT is given as “increased HiBiT-GCase levels in all three lines”.

With `O=C(COc1ccc(Cl)cc1)N[C@H]1CC[C@H](NC(=O)COc2ccc(Cl)cc2)CC1` [NCGC00384174-12, trans-ISRIB], the IC50 – broadly, the concentration needed to halve the response being measured – in assay [1] is 5 nM.
